Key:
[1] = target: T1, human orexin type 2 receptor (Homo sapiens, UniProt O43614); experiment: Measurement of orexin type 2 receptor agonist activity (calcium fluorescence, Fluo-4 AM, FDSS) in CHO cells forcibly expressing human OX2 receptor; format: cell-based; conditions: test compound 3 μM, DMSO = 0%, orexin A (human) 10 nM = 100%
T1 construct: expressed in transfected cells
T1 sequence (O43614 1-444): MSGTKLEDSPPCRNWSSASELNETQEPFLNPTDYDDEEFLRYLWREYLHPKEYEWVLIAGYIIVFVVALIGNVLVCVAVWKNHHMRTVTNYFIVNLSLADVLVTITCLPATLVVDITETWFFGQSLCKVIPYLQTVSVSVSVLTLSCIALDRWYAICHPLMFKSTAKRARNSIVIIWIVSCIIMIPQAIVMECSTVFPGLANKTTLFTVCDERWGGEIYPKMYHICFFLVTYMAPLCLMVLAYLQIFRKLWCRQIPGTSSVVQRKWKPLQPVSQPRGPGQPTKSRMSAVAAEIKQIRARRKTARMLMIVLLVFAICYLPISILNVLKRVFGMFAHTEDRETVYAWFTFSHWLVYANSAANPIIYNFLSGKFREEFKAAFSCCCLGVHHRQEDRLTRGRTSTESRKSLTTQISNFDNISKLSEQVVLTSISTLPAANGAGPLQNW
Procedure, shortened: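 CHO-dhfr cells stably expressing human OX2 receptor, loaded with Fluo-4 AM plus probenecid for 30 min at 37 °C, then 30 min at room temperature. Calcium fluorescence read for about 2 min 40 s after compound addition. Activity (%) scaled between DMSO (0%) and 10 nM human orexin A (100%).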

mice (C57BL/6J mice) = experiment: Evaluation of wake-promoting effects by EEG and EMG in mice; format: in vivo; conditions: 30 mg/kg, p.o., at zeitgeber time 5; time spent in wakefulness for 2 h after administration; male mice
Procedure: The wake-promoting effects were evaluated by measuring the electroencephalogram (EEG) and electromyogram (EMG) in […] mice (C57BL/6Jmice, CLEA Japan Inc., Tokyo, Japan). Under pentobarbital sodium anesthesia (50 mg/kg, intraperitoneal, Somnopentyl®, Kyoritsu Seiyaku, Tokyo, Japan), […] male […] mice were surgically implanted with EEG electrode and EMG electrode. Bilateral EEG leads (Biotex, Kyoto, Japan) were stereotaxically positioned at the parietal area and secured to the cranium with stainless-steel screws in contact with the dura. Bilateral EMG leads (Biotex) were implanted into the back cervical muscles. After at least a 1-week recovery period in home cages, the […] mice were habituated to the recording chamber located in an electrically shielded soundproof room. After habituated, the cortical EEG and EMG signals were recorded using VitalRecorder® (Kissei Comtec Co., Ltd., Nagano, Japan). The signals were automatically scored in 4 sec epochs by a sleep scoring system (SleepSign®, Kissei Comtec Co., Ltd.). Test compound (30 mg/kg, Table 3X-1) dissolved in a mixed solution containing 10% DMSO, 10% Cremophor EL, 20% PEG400 and 60% H2O, or vehicle (i.e., a mixed solution containing 10% DMSO, 10% Cremophor EL, 20% PEG400 and 60% H2O) was administered orally (p.o.) to the […] mice at zeitgeber time 5 in a volume of 10 mL/kg. The EEG and EMG recordings were performed for 2 h after the compound administration. The time spent in wakefulness for 2 h after administration (% of vehicle treatment) was calculated by using SleepSign.

CC(C)n1cnc2c(c1=O)[C@@H](Cc1cccc(-c3cc(F)cc(F)c3)c1F)[C@@H](NS(=O)(=O)C1CC1)CC2 [Example 195, N-{(5R,6S)-4-oxo-3-(propan-2-yl)-5-[(2,3′,5′-trifluoro[1,1′-biphenyl]-3-yl)methyl]-3,4,5,6,7,8-hexahydroquinazolin-6-yl}cyclopropanesulfonamide]
0X2R agonist activity (3 μM, %) [1]: 94% | Wakefulness time (% of vehicle treatment) (Mean, n = 3) (mice (C57BL/6J mice)): 183.08 % of vehicle treatment

CC(C)n1cnc2c(c1=O)[C@@H](Cc1cccc(-c3ccccc3)c1F)[C@@H](NS(=O)(=O)C1CC1)CC2 [Example 176, N-[(5R,6S)-5-[(2-fluoro[1,1′-biphenyl]-3-yl)methyl]-4-oxo-3-(propan-2-yl)-3,4,5,6,7,8-hexahydroquinazolin-6-yl]cyclopropanesulfonamide]
0X2R agonist activity (3 μM, %) [1]: 93% | Wakefulness time (% of vehicle treatment) (Mean, n = 3) (mice (C57BL/6J mice)): 204.27 % of vehicle treatment

CC(C)n1cnc2c(c1=O)[C@@H](Cc1cccc(-c3cccc(F)c3)c1F)[C@@H](NS(=O)(=O)C1CC1)CC2 [Example 172, N-[(5R,6S)-5-[(2,3′-difluoro[1,1′-biphenyl]-3-yl)methyl]-4-oxo-3-(propan-2-yl)-3,4,5,6,7,8-hexahydroquinazolin-6-yl]cyclopropanesulfonamide]
0X2R agonist activity (3 μM, %) [1]: 95% | Wakefulness time (% of vehicle treatment) (Mean, n = 3) (mice (C57BL/6J mice)): 201.32 % of vehicle treatment

CC(C)n1cnc2c(c1=O)[C@@H](Cc1cccc(-c3ccccc3)c1F)[C@@H](NS(=O)(=O)C1(F)CC1)CC2 [Example 180, 1-fluoro-N-[(5R,6S)-5-[(2-fluoro[1,1′-biphenyl]-3-yl)methyl]-4-oxo-3-(propan-2-yl)-3,4,5,6,7,8-hexahydroquinazolin-6-yl]cyclopropane-1-sulfonamide]
0X2R agonist activity (3 μM, %) [1]: 94% | Wakefulness time (% of vehicle treatment) (Mean, n = 3) (mice (C57BL/6J mice)): 197.28 % of vehicle treatment

From patent US12071434B2, “Heterocyclic compound” (Takeda Pharmaceutical Company Limited, priority 2018, dated 2024)
